{"source": "patent US10898609B2", "about": "“Tissue decellularization methods” (priority 2015, dated 2021)", "assay_type_in_all_cases": "cell-based, Sprague Dawley rats", "key": {"active caspase 3": {"tested_on": "active caspase 3", "test": "Immunochemistry for active caspase 3 on nerve tissue sections", "details": "10 μM camptothecin, 2 days, 37° C., ex vivo nerve; vs media control", "procedure": "(§1) Peripheral nerves were harvested from Sprague Dawley rats and decellularized according to an apoptosis-assisted protocol using 10 μM camptothecin in non-supplemented media at 37° C. for 2 days. Tissue in media without camptothecin was used as a control. Apoptotic agent treatment was succeeded by washes in saline buffered solutions to optimize cell removal. The degree of apoptosis, cellular removal, and matrix preservation was assessed using immunochemistry on nerve tissue sections and fluorescence imaging. Antibodies used to identify apoptosis, cell removal, and tissue preservation include those against active caspase 3 (Abcam); neurofilament (RT-97, DSHB) and S100 (Dako); and laminin (Sigma), respectively. […] Total DNA content was quantified using a Picogreen DNA assay (Life Technologies) according to manufacturer's instructions."}, "peripheral nerve [1]": {"tested_on": "peripheral nerve", "test": "Total DNA content of decellularized peripheral nerve, Picogreen DNA assay", "details": "1 day", "procedure": "Peripheral nerves were harvested from Sprague Dawley rats and decellularized according to an apoptosis-assisted protocol using 5 μM camptothecin in non-supplemented media at 37° C. for 1 day. Tissue in media without camptothecin, an apoptotic agent, was used as a control. Apoptotic agent treatment was succeeded by washes in saline buffered solutions to optimize cell removal. Furthermore, the tissue was treated with 75 u/mL DNAse for 24 hours to ensure DNA removal. The degree of apoptosis, cellular removal, and matrix preservation was assessed using immunochemistry on nerve tissue sections and fluorescence imaging (FIG. 2). Antibodies used to identify apoptosis, cell removal, and tissue preservation include those against active caspase 3 (Abcam); neurofilament (RT-97, DSHB) and S100 (Dako); and laminin (Sigma), respectively. […] FIGS. 2B and 2C show nerves treated with 5 μM for 1 day, washed with a hypertonic, and either washed with a hypertonic solution or treated for 24 hours with DNAse, respectively. […] FIGS. 2E and 2F show treatment with higher camptothecin (10 μM), again for 1 day, and washed similarly to tissue in FIGS. 2B and 2C. These images depict 1) apoptosis induction is necessary prior to washing to effectively remove cellular components and 2) combing apoptosis induction with washes in non-isotonic solutions achieves cellular removal of peripheral nerve tissue. Total DNA content was quantified using a Picogreen DNA assay (Life Technologies) according to manufacturer's instructions."}, "peripheral nerve [2]": {"tested_on": "peripheral nerve", "test": "TUNEL assay of apoptosis-mediated DNA fragmentation in nerve tissue", "details": "10 μM camptothecin, 2 days, 37° C., ex vivo nerve; vs media control", "procedure": "as §1"}}}
{"smiles": "CC[C@@]1(O)C(=O)OCc2c1cc1n(c2=O)Cc2cc3ccccc3nc2-1", "note": "[camptothecin]", "values": [{"measurement": "active caspase 3 (early mediator of apoptosis)", "setting": "active caspase 3", "value": "caspase 3 activation"}, {"measurement": "reduction in DNA content compared to fresh nerve", "setting": "peripheral nerve [1]; 5 μM camptothecin, 37° C., hypertonic and hypotonic washes", "value": 71.9, "unit": "%"}, {"measurement": "reduction in DNA content compared to fresh nerve", "setting": "peripheral nerve [1]; 5 μM camptothecin, hypotonic wash replaced with DNAse treatment (75 u/mL, 24 hours)", "value": 95.1, "unit": "%"}, {"measurement": "reduction in DNA content compared to fresh nerve", "setting": "peripheral nerve [1]; 10 μM camptothecin, hypertonic and hypotonic washes", "value": 57.3, "unit": "%"}, {"measurement": "reduction in DNA content compared to fresh nerve", "setting": "peripheral nerve [1]; 10 μM camptothecin, hypotonic wash replaced with DNAse treatment (75 u/mL, 24 hours)", "value": 95.8, "unit": "%"}, {"measurement": "DNA fragmentation (TUNEL staining)", "setting": "peripheral nerve [2]", "value": "DNA fragmentation"}]}
